≈ marks a conversion by molar mass, not a printed value.
Key:
Leishmania infantum = assay: microbe, parasite or virus in culture; settings: for IC50: MHOM/MA(BE)/67/ITMAP263, 120 h; for IC90: MHOM/MA(BE)/67/ITMAP263, in Mus musculus, 120 h
Description: Antileishmanial activity against amastigote stage of Leishmania infantum MHOM/MA(BE)/67/ITMAP263 infected in mouse peritoneal macrophage assessed as parasite growth inhibition incubated for 5 days by Giemsa staining based assay

in vitro [1] = settings: human, MRC5 SV2 cells
Description: (§1) Cytotoxicity against human MRC5 SV2 cells assessed as reduction in cell viability incubated for 3 days by fluorimetry

physchem [2] = settings: PBS buffer, pH 7.4
Description: Kinetic solubility of compound in PBS buffer at pH 7.4

in vitro [3] = settings: mouse, liver microsomes
Description: Metabolic stability in mouse liver microsomes assessed as intrinsic clearance at 0.5 uM incubated for 30 mins by LC-MS/MS analysis

[4] = system: Trypanosoma brucei rhodesiense; assay: microbe, parasite or virus in culture; settings: STIB900, 72 h
Description: Antiprotozoal activity against Trypanosoma brucei rhodesiense STIB900 trypomastigotes incubated for 72 hrs by resazurin dye based fluorimetric analysis

in vitro [5] = settings: mouse, peritoneal macrophages
Description: (§2) Cytotoxicity against mouse peritoneal Macrophage cells assessed as reduction in cell viability incubated for 3 days by fluorimetry

Macrophage = assay: cells; settings: Mus musculus, 72 h
Description: as §2

physchem [6] = settings: PBS buffer, pH 2
Description: Kinetic solubility of compound in PBS buffer at pH 2

cells = settings: Homo sapiens, MRC-5 SV2, 72 h
Description: as §1

Trypanosoma brucei = assay: microbe, parasite or virus in culture; settings: Squib 427, 72 h
Description: Antitrypanosomal activity against Trypanosoma brucei Squib 427 assessed as reduction in parasite growth incubated for 72 hrs by resazurin dye based fluorimetric analysis

Trypanosoma cruzi = assay: microbe, parasite or virus in culture; settings: Tulahuen CL2, MRC-5 SV2, 168 h
Description: Antitrypanosomal activity against Trypanosoma cruzi Tulahuen CL2 amastigotes infected in human MRC5 SV2 cells incubated for 7 days by chlorophenol red beta-D-galactopyranoside substrate based spectrophotometric assay

in vitro [7] = settings: human, liver microsomes
Description: Metabolic stability in human liver microsomes assessed as intrinsic clearance at 0.5 uM incubated for 30 mins by LC-MS/MS analysis

in vitro [8] = settings: dog, MDCK
in vitro [9] = settings: dog, MDCK; remark: listed apart in the source
Description: Apparent permeability across basolateral to apical side in MDCK cells

in vitro [10] = settings: human, MRC5 SV2 cells; remark: listed apart in the source
Description: Selectivity index, ratio of IC50 for human MRC5 SV2 cells to IC50 for Trypanosoma cruzi Tulahuen CL2 amastigotes infected in human MRC5 SV2 cells

in vitro [11] = settings: human, MRC5 SV2 cells; remark: listed apart in the source
Description: Selectivity index, ratio of IC50 for human MRC5 SV2 cells to IC50 for Trypanosoma brucei rhodesiense STIB900 trypomastigotes

in vitro [12] = settings: mouse, peritoneal macrophages; remark: listed apart in the source
Description: Selectivity index, ratio of IC50 for mouse peritoneal macrophage to IC50 for Leishmania infantum MHOM/MA(BE)/67/ITMAP263 infected in mouse peritoneal macrophage

in vitro [13] = settings: mouse, liver microsomes; remark: listed apart in the source
Description: Metabolic stability in mouse liver microsomes assessed as fraction unbound at 0.5 uM incubated for 30 mins by LC-MS/MS analysis

physchem [14] = settings: buffer, pH 7.4
Description: Lipophilicity, logD of compound at pH 7.4 by HPLC analysis

in vitro [15] = settings: human, MRC5 SV2 cells; remark: listed apart in the source
Description: Selectivity index, ratio of IC50 for human MRC5 SV2 cells to IC50 for Trypanosoma brucei Squib 427

in vitro [16] = settings: PAMPA
Description: Effective permeability of compound by PAMPA assay

Structure (SMILES) | IC50 (Leishmania infantum) [µM] | IC90 (Leishmania infantum) [µM] | IC90 at 72 h (in vitro [1]) [µM] | CLint scaled at 0.5 h, 0.5 µM (in vitro [3]) [mL/min/kg] | IC50 [4] [µM] | IC90 [4] [µM] | IC90 at 72 h (in vitro [5]) [µM] | IC50 (Macrophage) [µM] | IC50 (cells) [µM] | IC50 (Trypanosoma brucei) [µM] | IC90 (Trypanosoma brucei) [µM] | IC50 (Trypanosoma cruzi) [µM] | IC90 (Trypanosoma cruzi) [µM] | CLint scaled at 0.5 h, 0.5 µM (in vitro [7]) [mL/min/kg] | microsomal CLint at 0.5 h, 0.5 µM (in vitro [7]) [µL/min/mg] | selectivity ratio (in vitro [10]) | selectivity ratio (in vitro [11]) | selectivity ratio (in vitro [12]) | logD (physchem [14]) | Papp (in vitro [16]) [×10⁻⁶ cm/s] | other results
CC(C)c1cc(C(=O)N2CCCC(c3cc4ncccc4[nH]3)C2)on1 (configuration not stated) | 32 to 64 | 32 to 64 | 64 | 1600 | 32 to 38.1 | 32 to 58.7 | 32 to 64 | 32 to 64 | 64 | 32 to 55.6 | 32 to 64 | 2.9 to 3.88 | 7.61 to 24.3 | 67.8 | 37 | 8.25 to 22.1 | – | – | – | – | solubility kinetic (physchem [2]): 60.4 µg/mL (≈ 178 µM); microsomal CLint at 0.5 h, 0.5 µM (in vitro [3]): 560 µL/min/mg; solubility kinetic (physchem [6]): > 67.3 µg/mL; Papp A→B (in vitro [8]): 29.4 ×10⁻⁶ cm/s; Papp B→A (in vitro [9]): 33.2 ×10⁻⁶ cm/s
CN(C(=O)c1ccccc1)c1cccc(-c2cc3ncccc3[nH]2)c1 | 37.4 | 60.5 | 60.9 | 5840 | 9.02 | 35.5 | 59.7 | 45.3 | 26.1 | 31.9 | 59.1 | 7.25 | 64 | 83.7 | 50.6 | 3.59 | 2.89 | 0.707 | 3.3 | 2.78 | microsomal CLint at 0.5 h, 0.5 µM (in vitro [3]): 1200 µL/min/mg; fraction unbound at 0.5 h, 0.5 µM (in vitro [13]): 0.653; selectivity ratio (in vitro [15]): 0.849
O=C(c1cc(C(F)(F)F)no1)N1CCCC(c2cc3ncc(-c4ccccc4)cc3[nH]2)C1 (configuration not stated) | 35.1 | 59.6 | 64 | – | 64 | 64 | 59.7 | 45.3 | 64 | 64 | 64 | 64 | 64 | 1350 | 196 | – | – | 1.79 | 4.59 | 0.307 | fraction unbound at 0.5 h, 0.5 µM (in vitro [13]): 0.157
COc1ccc(OC)c2[nH]c(C(=O)N3CCCC(c4cc5ncccc5[nH]4)C3)cc12 (configuration not stated) | 9.59 | 32 | 29.9 | 9620 | 9.55 | 25.6 | 32 | 32 | 22.6 | 20.5 | 29.9 | 1.2 | 6.67 | 235 | – | 18.9 | 2.36 | 2.35 | – | – | –
O=C(c1cc(C(F)(F)F)no1)N1CCCC(c2cc3nc(NCc4ccccc4)ccc3[nH]2)C1 (configuration not stated) | 6.34 | 23.6 | 13.6 | – | 4.97 | 13 | 29.9 | 22.6 | 6.91 | 7.87 | 14.8 | 2.14 | 64 | 1870 | 149 | 3.23 | 1.4 | 1.07 | 4.4 | 0.239 | fraction unbound at 0.5 h, 0.5 µM (in vitro [13]): 0.0857; selectivity ratio (in vitro [15]): 0.894
O=C(c1ccc(F)cc1)N1CCCC(c2cc3ncc(Cl)cc3[nH]2)C1 (configuration not stated) | 18.5 | 50.4 | 64 | 970 | 5.82 | 13.9 | 64 | 64 | 34.9 | 16.3 | 32.4 | 28.8 | 59.5 | 62.2 | 44.6 | 1.2 | 5.94 | 1.9 | 3.82 | 10.6 | microsomal CLint at 0.5 h, 0.5 µM (in vitro [3]): 235 µL/min/mg; fraction unbound at 0.5 h, 0.5 µM (in vitro [13]): 0.775; selectivity ratio (in vitro [15]): 2.16
O=C(c1ccccc1)N1CCCC(c2cn3nc(Cl)ccc3n2)C1 (configuration not stated) | 64 | 64 | 64 | > 772 | 7.81 | 14.5 | 64 | 64 | 64 | 47.7 | 64 | 64 | 64 | > 61.7 | 56.9 | – | 8.19 | – | 3.18 | 23.6 | microsomal CLint at 0.5 h, 0.5 µM (in vitro [3]): 242 µL/min/mg; selectivity ratio (in vitro [15]): 1.37
O=C(c1ccccc1)N1C=C(c2cc3ncccc3[nH]2)CCC1 | 34.9 | 64 | 64 | ≥ 3320 | 64 | 64 | 64 | 64 | 64 | 64 | 64 | 0.866 | 16 | ≥ 257 | 238 | 73.8 | – | 1.84 | 2.96 | 2.99 | microsomal CLint at 0.5 h, 0.5 µM (in vitro [3]): 1040 µL/min/mg
COc1cc(OC)c2cc(C(=O)N3CCCC(c4cc5ncccc5[nH]4)C3)[nH]c2c1 (configuration not stated) | 18.6 | 29.8 | 29.5 | 2420 | 7.33 | 24.4 | 29.9 | 22.6 | 19.5 | 19.6 | 29.5 | 1.03 | 3.13 | 838 | – | 18.8 | 2.65 | 1.07 | – | – | –
O=C(c1cc(C2CC2)no1)N1CCCC(c2cc3ncccc3[nH]2)C1 (configuration not stated) | 37.1 | 64 | 64 | 1610 | 41.9 | 64 | 64 | 64 | 64 | 64 | 64 | 4.05 | 13.8 | 39.5 | 33.8 | 15.8 | 1.56 | 1.73 | 2.86 | 3.17 | microsomal CLint at 0.5 h, 0.5 µM (in vitro [3]): 467 µL/min/mg; fraction unbound at 0.5 h, 0.5 µM (in vitro [13]): 0.926
